Results published in US8846730B2, “Compounds as cannabinoid receptor ligands” (priority 2008, dated 2014).
Where two headings read alike, the source gives them in different places.

Assays:
[1] = target: rat CB2 receptors (Rattus norvegicus (Rat), UniProt Q9QZN9); assay: rat CB2 radioligand binding assay ([3H]CP 55,940 competition); conditions: HEK293 membranes, 0.5 nM [3H]CP 55,940
Outline: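 Membranes from HEK293 cells stably expressing rat CB2 (20 μg protein/well) were incubated 45 min at 30 °C with 0.5 nM [3H]CP 55,940 and five displacer concentrations, in pH 7.4 Tris buffer with 0.5 mg/mL BSA. Bound radioactivity was measured by filtration. Nonspecific binding was defined with 10 μM unlabeled CP 55,940.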

[2] = target: rat CB1 receptors (HEK cells) (Rattus norvegicus (Rat), UniProt P20272); assay: rat CB1 cyclase functional assay (HitHunter cAMP); format: cell-based
Method: (§1) The cyclase functional assays were performed using the HitHunter™ cAMP assay kit from DiscoveRx (Fremont, Calif.) according to vendor's protocol. Briefly, HEK cells expressing CB2 or CB1 receptors (rat or human) were detached using cell dissociation buffer (Invitrogen, Carlsbad, Calif.), dispersed and placed in suspension at 10,000 cells per well in 96 well plates prior to the assay. Cell suspensions were incubated at 37° C. for 20 min with variable concentrations of test ligands and or 10 μM CP 55,940-positive control in the presence of a fixed concentration of forskolin (18 μM for rat CB2 and 37 μM for rat CB1) in Dulbescco's phosphate-buffered saline (Invitrogen, Carlsbad, Calif.) supplemented with bovine serum albumin (0.01% final concentration). The reactions were terminated by the addition of lysis buffer and the luminescence was detected following the procedure according to the manufacturer's instructions. EC50 values were calculated using sigmoidal dose-response curve fitting from Prism (GraphPad).

[3] = target: rat CB2 receptors (HEK cells) (Rattus norvegicus (Rat), UniProt Q9QZN9); assay: rat CB2 cyclase functional assay (HitHunter cAMP); format: cell-based
Method: as §1

[4] = target: human CB2 receptors (Homo sapiens (Human), UniProt P34972); assay: human CB2 radioligand binding assay ([3H]CP 55,940 competition); conditions: HEK293 membranes, 0.5 nM [3H]CP 55,940; read-out: human CB2 (Ki)
Outline: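 Membranes from HEK293 cells stably expressing human CB2 (5 μg protein/well) competed against 0.5 nM [3H]CP 55,940 with five concentrations of test ligand (0.01 nM to 10 μM), pH 7.4 Tris buffer with BSA, 90 min at 30 °C. Filtration and scintillation counting; nonspecific binding with 10 μM unlabeled CP 55,940.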

[5] = HEK cells, forskolin 18 μM, read-out: rat CB2 cyclase (EC50)
[6] = HEK cells, forskolin 37 μM, read-out: rCB1 cyclase (EC50)

Chain of rat CB1 receptors (HEK cells) (P20272 whole entry): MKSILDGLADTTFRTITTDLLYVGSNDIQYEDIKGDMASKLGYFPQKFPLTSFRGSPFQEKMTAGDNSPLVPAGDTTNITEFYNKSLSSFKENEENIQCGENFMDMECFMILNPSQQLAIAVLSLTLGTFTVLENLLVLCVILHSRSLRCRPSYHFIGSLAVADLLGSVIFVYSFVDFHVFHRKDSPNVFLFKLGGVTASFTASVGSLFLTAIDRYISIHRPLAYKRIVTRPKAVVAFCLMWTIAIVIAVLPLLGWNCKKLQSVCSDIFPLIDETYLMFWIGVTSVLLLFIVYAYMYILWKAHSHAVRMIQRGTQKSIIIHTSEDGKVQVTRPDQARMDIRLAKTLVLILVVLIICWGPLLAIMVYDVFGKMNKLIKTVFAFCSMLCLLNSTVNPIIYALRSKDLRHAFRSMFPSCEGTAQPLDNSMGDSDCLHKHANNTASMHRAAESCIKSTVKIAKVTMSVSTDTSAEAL
Chain of human CB2 receptors (P34972 whole entry): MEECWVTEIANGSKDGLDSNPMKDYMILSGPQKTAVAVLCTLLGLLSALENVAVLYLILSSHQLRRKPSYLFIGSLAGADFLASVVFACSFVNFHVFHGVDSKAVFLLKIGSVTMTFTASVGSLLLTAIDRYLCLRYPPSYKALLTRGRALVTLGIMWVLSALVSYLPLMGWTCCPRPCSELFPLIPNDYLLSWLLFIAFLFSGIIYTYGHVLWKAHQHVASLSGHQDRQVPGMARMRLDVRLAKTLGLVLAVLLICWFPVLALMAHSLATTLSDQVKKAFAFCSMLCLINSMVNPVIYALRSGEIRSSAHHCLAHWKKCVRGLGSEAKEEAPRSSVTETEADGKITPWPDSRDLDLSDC

Structure (SMILES) | Ki [1] [nM] | EC50 [2] [nM] | EC50 [3, 5] [nM] | Ki [4] [nM] | EC50 [3] [nM] | EC50 [2, 6] [nM]
CC(C)(C)c1cn(C[C@H]2CCCO2)/c(=N/C(=O)c2cc(C(F)(F)F)ccc2OC[C@@H]2CCCN2S(C)(=O)=O)s1 [Example 48, N-[(2Z)-5-tert-butyl-3-[(2R)-tetrahydrofuran-2-ylmethyl]-1,3-thiazol-2(3H)-ylidene]-2-{[(2S)-1-(methylsulfonyl)pyrrolidin-2-yl]methoxy}-5-(trifluoromethyl)benzamide] | 3 | 8650 | 0.39 | 16 | – | –
CN(CCOc1ccc(C(F)(F)F)cc1C(=O)/N=c1\sc(C(C)(C)C)cn1C[C@H]1CCCO1)c1ccccc1 [Example 35, N-[(2Z)-5-tert-butyl-3-[(2R)-tetrahydrofuran-2-ylmethyl]-1,3-thiazol-2(3H)-ylidene]-2-{2-[methyl(phenyl)amino]ethoxy}-5-(trifluoromethyl)benzamide] | 6.5 | 9490 | 6.31 | 14 | – | –
CC(C)(C)c1cn(C[C@H]2CCCO2)/c(=N/C(=O)c2cc(C(F)(F)F)ccc2OC[C@@H]2CCCO2)s1 [Example 23, N-[(2Z)-5-tert-butyl-3-[(2R)-tetrahydrofuran-2-ylmethyl]-1,3-thiazol-2(3H)-ylidene]-2-[(2S)-tetrahydrofuran-2-ylmethoxy]-5-(trifluoromethyl)benzamide] | 0.3 | 941 | – | 0.5 | 0.14 | –
CN1CC(COc2ccc(C(F)(F)F)cc2C(=O)/N=c2\sc(C(C)(C)C)cn2C[C@H]2CCCO2)C1 [Example 12, N-[(2Z)-5-tert-butyl-3-[(2R)-tetrahydrofuran-2-ylmethyl]-1,3-thiazol-2(3H)-ylidene]-2-[(1-methylazetidin-3-yl)methoxy]-5-(trifluoromethyl)benzamide] | 28 | 10800 | 2.07 | 208 | – | –
CC(C)(C)c1cn(C[C@H]2CCCO2)/c(=N/C(=O)c2cc(C(F)(F)F)ccc2OC[C@H]2CCCCN2)s1 [Example 6, N-[(2Z)-5-tert-butyl-3-[(2R)-tetrahydrofuran-2-ylmethyl]-1,3-thiazol-2(3H)-ylidene]-2-[(2R)-piperidin-2-ylmethoxy]-5-(trifluoromethyl)benzamide] | 14 | 4500 | 0.4 | 30 | – | –
CN1CCC(COc2ccc(C(F)(F)F)cc2C(=O)/N=c2\sc(C(C)(C)C)cn2C[C@H]2CCCO2)CC1 [Example 15, N-[(2Z)-5-tert-butyl-3-[(2R)-tetrahydrofuran-2-ylmethyl]-1,3-thiazol-2(3H)-ylidene]-2-[(1-methylpiperidin-4-yl)methoxy]-5-(trifluoromethyl)benzamide] | 83 | 13000 | 6.26 | 1000 | – | –
CC(C)(C)c1cn(C[C@H]2CCCO2)/c(=N/C(=O)c2cc(C(F)(F)F)ccc2OC[C@H]2CCC[N+]2(C)[O-])s1 (some centres unmarked) [Example 49] | 12 | – | 0.45 | 24 | – | 7760
COCCn1cc(C(C)(C)C)s/c1=N\C(=O)c1cc(C(F)(F)F)ccc1OCc1cnccn1 [Example 41, N-[(2Z)-5-tert-butyl-3-(2-methoxyethyl)-1,3-thiazol-2(3H)-ylidene]-2-(pyrazin-2-ylmethoxy)-5-(trifluoromethyl)benzamide] | 14 | 5700 | – | 45 | 4.49 | –
CN1CCCC[C@H]1COc1ccc(C(F)(F)F)cc1C(=O)/N=c1\sc(C(C)(C)C)cn1C[C@H]1CCCO1 [Example 5] | 1.4 | – | 0.15 | 0.7 | – | 612
CN1CC[C@H]1COc1ccc(C(F)(F)F)cc1C(=O)/N=c1\sc(C(C)(C)C)cn1C[C@H]1CCCO1 [Example 3, N-[(2Z)-5-tert-butyl-3-[(2R)-tetrahydrofuran-2-ylmethyl]-1,3-thiazol-2(3H)-ylidene]-2-{[(2S)-1-methylazetidin-2-yl]methoxy}-5-(trifluoromethyl)benzamide] | 4.5 | 1020 | 0.09 | 7.4 | – | –
CN1CCN(C)C(COc2ccc(C(F)(F)F)cc2C(=O)/N=c2\sc(C(C)(C)C)cn2C[C@@H]2CCCO2)C1 (some centres unmarked) [Example 34, N-[(2Z)-5-tert-butyl-3-[(25)-tetrahydrofuran-2-ylmethyl]-1,3-thiazol-2(3H)-ylidene]-2-[(1,4-dimethylpiperazin-2-yl)methoxy]-5-(trifluoromethyl)benzamide] | 13 | – | 0.3 | 25 | – | 4090
CC(C)(C)c1cn(C[C@H]2CCCO2)/c(=N/C(=O)c2cc(C(F)(F)F)ccc2OCc2cccc[n+]2[O-])s1 [Example 20, N-[(2Z)-5-tert-butyl-3-[(2R)-tetrahydrofuran-2-ylmethyl]-1,3-thiazol-2(3H)-ylidene]-2-[(1-oxidopyridin-2-yl)methoxy]-5-(trifluoromethyl)benzamide] | 51 | 7980 | 0.47 | 209 | – | –
CC(C)(C)c1cn(C[C@H]2CCCO2)/c(=N/C(=O)c2cc(C(F)(F)F)ccc2OCc2ccccn2)s1 [Example 18, N-[(2Z)-5-tert-butyl-3-[(2R)-tetrahydrofuran-2-ylmethyl]-1,3-thiazol-2(3H)-ylidene]-2-(pyridin-2-ylmethoxy)-5-(trifluoromethyl)benzamide] | 6 | > 27000 | 1.02 | 20 | – | –
CN1CCC[C@H]1COc1ccc(C(F)(F)F)cc1C(=O)/N=c1\sc(C(C)(C)C)cn1C[C@H]1CCCO1 [Example 24, N-[(2Z)-5-tert-butyl-3-[(2R)-tetrahydrofuran-2-ylmethyl]-1,3-thiazol-2(3H)-ylidene]-2-{[(2S)-1-methylpyrrolidin-2-yl]methoxy}-5-(trifluoromethyl)benzamide] | 3.4 | 1990 | 0.09 | 4.6 | – | –
CC(C)(C)c1cn(C[C@H]2CCCO2)/c(=N/C(=O)c2cc(C(F)(F)F)ccc2OC[C@@H]2CCN2)s1 [Example 2, 2-[(2S)-azetidin-2-ylmethoxy]-N-[(2Z)-5-tert-butyl-3-[(2R)-tetrahydrofuran-2-ylmethyl]-1,3-thiazol-2(3H)-ylidene]-5-(trifluoromethyl)benzamide] | 3 | 3240 | 0.64 | 15 | – | –
CN1C[C@@H](F)C[C@H]1COc1ccc(C(F)(F)F)cc1C(=O)/N=c1\sc(C(C)(C)C)cn1C[C@H]1CCCO1 [Example 53, N-[(2Z)-5-tert-butyl-3-[(2R)-tetrahydrofuran-2-ylmethyl]-1,3-thiazol-2(3H)-ylidene]-2-{[(2S,4S)-4-fluoro-1-methylpyrrolidin-2-yl]methoxy}-5-(trifluoromethyl)benzamide] | 3.6 | 1130 | 0.12 | 3 | – | –
CC(C)N1CCC[C@H]1COc1ccc(C(F)(F)F)cc1C(=O)/N=c1\sc(C(C)(C)C)cn1C[C@H]1CCCO1 [Example 46, N-[(2Z)-5-tert-butyl-3-[(2R)-tetrahydrofuran-2-ylmethyl]-1,3-thiazol-2(3H)-ylidene]-2-{[(2S)-1-isopropylpyrrolidin-2-yl]methoxy}-5-(trifluoromethyl)benzamide] | 21 | 5420 | 7.32 | 102 | – | –
CN1CCC[C@H]1COc1ccc(C(F)(F)F)cc1C(=S)/N=c1\sc(C(C)(C)C)cn1C[C@H]1CCCO1 [Example 51, N-[(2Z)-5-tert-butyl-3-[(2R)-tetrahydrofuran-2-ylmethyl]-1,3-thiazol-2(3H)-ylidene]-2-{[(2S)-1-methylpyrrolidin-2-yl]methoxy}-5-(trifluoromethyl)benzenecarbothioamide] | 0.9 | 1320 | 0.34 | 1.3 | – | –
CC(C)(C)c1cn(C[C@H]2CCCO2)/c(=N/C(=O)c2cc(C(F)(F)F)ccc2OCc2cccnc2)s1 [Example 21, N-[(2Z)-5-tert-butyl-3-[(2R)-tetrahydrofuran-2-ylmethyl]-1,3-thiazol-2(3H)-ylidene]-2-(pyridin-3-ylmethoxy)-5-(trifluoromethyl)benzamide] | 10 | 6220 | – | 13 | 0.21 | –
CN1CCC[C@@H]1COc1ccc(C(F)(F)F)cc1C(=O)/N=c1\sc(C(C)(C)C)cn1C[C@H]1CCCO1 [Example 26, N-[(2Z)-5-tert-butyl-3-[(2R)-tetrahydrofuran-2-ylmethyl]-1,3-thiazol-2(3H)-ylidene]-2-{[(2R)-1-methylpyrrolidin-2-yl]methoxy}-5-(trifluoromethyl)benzamide] | 70 | 11200 | 2.18 | 206 | – | –
